US8669232B2, “Flavonol compounds, a bioactive extract/fraction from Ulmus wallichiana and its compounds for prevention for treatment of osteo-health related disorders” (Council of Scientific & Industrial Research, priority 2008, dated 2014)

Experiments:
calvarial osteoblasts = test: In vitro mineralization of calvarial osteoblasts (alizarin red-S, von kossa); type: cell-based, neonatal Sprague-Dawley rats; settings: for Von kossa staining (mineralized nodules) compared with controls (vehicle): 21 days culture
Experimental: Neonatal rat calvarial cell cultures are prepared as described previously (Chattopadhyay et al., Endocrinology 145:3451-62, 2004) using slight modification. Briefly, for calvarial osteoblast cultures, frontal and parietal bones from neonatal Sprague-Dawley rats (1-3 day old) were digested in 0.1% collagenase/0.1% dispase in α-MEM to obtain 5 sequential digests. The second through fifth digests are combined and grown to confluence at 37° C. and 5% CO2 in air in α-MEM, supplemented with 10% fetal bovine serum (FBS), 2 mM glutamine, 100 U/ml penicillin-streptomycin, non-essential amino acid solution and sodium pyruvate.
Ability of cells to produce mineralized matrix is important with regard to development of materials for bone regeneration. Mineralization of extracellular matrix by osteoblasts was determined using alizarin red-S (AR-S) assay combined with cetylpyridinium chloride (CPC) extraction. (Stanford et al, J. Biol. Chem. 270:9420-9428; 1995.) Alizarin red is a dye that binds selectively to nascent calcium salts and is widely used for calcium mineral histochemistry. Cells were seeded onto a six well plate containing 10000 cells/well in culture medium supplemented with 10 mM β-glycerophosphate and 50 μg/ml ascorbic acid with test compounds K012, K058, K068 and K0100 at 1 nM and 100 nM concentration. Treatment was given for 21 days and after completion of the treatment samples were rinsed with PBS followed by fixation (4% HCHO for 20 min). Photomicrographs of the stained wells were taken. Subsequently, alizarin red-S stain was extracted using 10% (w/v) cetylpyridinium chloride (CPC) in […] sodium phosphate, pH 7.0, for 15 min at room temperature, and the resulting solutions were read on a Microplate reader with a test wavelength of 540 nm against a reference wavelength of 620 nm. Mineralization nodules were also seen by Von kossa staining procedure (A. M. Chou et al. Materials Science and Engineering C 20 (2002) 77-83.) After 21 days culture, cells in tissue culture wells were washed with PBS and immersed in 5% (w/v) silver nitrate solution for 45 min. After rinsing with distilled water, they were fixed in 5% (w/v) sodium bicarbonate formalin for 8 min. Finally, they were immersed in 5% (w/v) sodium thiosulphate solution for 5 min and washed thoroughly with water for 15 min and photomicrographs were taken.

[1] = tested on: ovariectomized Sprague Dawley rats; test: Uterine weight in Ovx rats (estrogen agonistic effect); type: in vivo; settings: 1.0&5.0 mg/kg body weight, 90 days, uterine weight comparable with Ovx + vehicle
Experimental: Ethanolic extracts of […] at the doses of 500-& 750 mg/kg body weight were given daily by oral route to Sprague Dawley (180-200 g) rats after bilateral ovariectomy (Ovx). This is the most widely used animal model for osteopenia (bone loss) mimicking human condition of post-menopausal bone loss. The extract was given in gum acacia (vehicle). Sham operated rats and Ovx rats were used as controls and given only gum acacia. Each group consisted of 10 rats and the groups were as follows: sham intact, Ovx, Ovx+500 mg/kg extract and Ovx+750 mg/kg extract. Treatment started 24 h after the surgery and continued for 90 days. After 90 days, the rats were first acclimatized and then kept in metabolic cages with no food but only water for 24 h to collect urine samples. After 24 h, rats were returned to the cages with food and water ad libitum with oral administration of the extract as before foe an additional 24 hour. Rats were then euthanized and autopsied to collect blood, bones (tibia, femur, L1-L4 vertebrae) and uterus. […] at 1 to 10 mg/kg body weight were given daily by oral route to Sprague Dawley (180-200 g) rats after bilateral ovariectomy (Ovx). This is the most widely used animal model for osteopenia (bone loss) mimicking human condition of post-menopausal bone loss. The extract was given in gum acacia (vehicle). […]

| Compound | osteoblast mineralization (summary of in vitro effects) (calvarial osteoblasts) | Von kossa staining (mineralized nodules) compared with controls (vehicle) (calvarial osteoblasts) | estrogen agonistic action at the uterine level (uterine weight) [1] |
| --- | --- | --- | --- |
| O=c1c(O)c(-c2ccc(O)c(O)c2)oc2cc(O)c(C3O[C@H](CO)[C@@H](O)[C@H](O)[C@H]3O)c(O)c12 (stereo partly drawn) [K012, 6-Glucopyranosyl-3,3′,4′,5,7-pentahydroxyflavone] | promoted | increased | no estrogen agonistic action |
| O=C1c2c(cc(O)c([C@@H]3OC(CO)[C@@H](O)[C@H](O)C3O)c2O)O[C@@H](c2ccc(O)c(O)c2)[C@@H]1O (stereo partly drawn) [K058, (2S,3S)-(+)-3′,4′,5,7-tetrahydroxydihydroflavonol-6-C-β-D-glucopyranoside] | promoted | increased | no estrogen agonistic action |
